Test results as given in ChEMBL document CHEMBL3507680, “University of Dundee, Gates Library screen for HepG2 cell viability”.

Experiment: Human HepG2 cell viability assay in 384 well format
Assay type: toxicity, cell-based
Parameters: dose 125 nL, time 70.5 hour; cytotoxicity at 70.5 h: concentration not given beside the values
Conditions: HepG2 cells, read-out: Inhibition

| Compound | cytotoxicity at 70.5 h |
| --- | --- |
| CCC(=O)NCC(Cc1cccc(F)c1)n1cccc1 (stereo not drawn) | -7.66% |
| O=C(NCC(Cc1cccc(F)c1)n1cccc1)C1CC1 (stereo not drawn) | -16.2% |
| COCC(=O)NCC(Cc1cccc(F)c1)n1cccc1 (stereo not drawn) | 0.782% |
| O=S(=O)(c1ccccc1Br)N1CCC2(CC1)OCCS2 | -2.19% |
| O=C(NCc1c(F)cccc1F)C1CN(C(=O)c2cnccn2)C1 | -6.6% |
| CSc1ccccc1NC(=O)C1CN(C(=O)c2ccc3c(c2)OCO3)C1 | 0.521% |
| O=C(Nc1cccnc1)C1CN(C(=O)c2ccc3c(c2)OCO3)C1 | -14.4% |
| COCCCNC(=O)C1CN(C(=O)c2cnccn2)C1 | -15.7% |
| CCOC(=O)CNC(=O)C1CN(C(=O)c2cnccn2)C1 | -5.07% |
| O=C(Nc1cccnc1)C1CCN(c2cc(-n3ccnc3)ncn2)CC1 | -5.59% |
| O=C(Nc1cccnc1)C1CCCN(c2cc(-n3cccn3)ncn2)C1 (stereo not drawn) | 4.07% |
| CCS(=O)(=O)NCC1CCN(c2cnccn2)CC1 | -6.43% |
| O=S(=O)(NCC1CCN(c2cnccn2)CC1)c1ccc(F)c(Cl)c1 | -1.36% |
| COc1ccc(Cl)cc1C(=O)NCC1CCN(C(=O)c2ccoc2)CC1 | -15.3% |
| Cc1csc(C(=O)NCCN2CCC(c3cccs3)CC2)c1 | 35.6% |
| O=C(NCCN1CCC(c2cccs2)CC1)c1ccc(F)cc1Cl | -3.13% |
| CSCC(C)(O)CNC(=O)Nc1cc(C)cc(C)c1 (stereo not drawn) | -5.72% |
| CSCCC(C)(O)CNS(=O)(=O)Cc1ccc(F)cc1 (stereo not drawn) | -17% |
| CSc1ccccc1C(=O)NCCC(O)c1ccco1 (stereo not drawn) | 16.9% |
| CSc1ncccc1C(=O)NCCC(O)c1cccs1 (stereo not drawn) | -2.95% |
| O=S(=O)(NCCC(O)c1cccs1)c1ccccc1Cl (stereo not drawn) | -10.8% |
| O=C(Nc1nc2c(s1)CN(C(=O)NCc1cccs1)CC2)C1CC1 | -9.79% |
| O=C(Nc1nc2c(s1)CN(S(=O)(=O)C1CC1)CC2)c1ccccn1 | -1.49% |

| Compound | cytotoxicity at 70.5 h |
| --- | --- |
| O=C(Nc1nc2c(s1)CN(S(=O)(=O)C1CC1)CC2)Nc1ccccc1F | 23.7% |
| O=C(Nc1cccc(C(F)(F)F)c1)N1CCN(CCn2ccnc2)CC1 | -10.1% |
| COc1nn(C)cc1C(=O)NCC1(O)CCOCC1 | -3.26% |
| Cc1ccc(S(=O)(=O)NCC2(O)CCOc3ccccc32)s1 (stereo not drawn) | -4.01% |
| Cc1cc(C(=O)NCc2cc(C)oc2C)no1 | -5.78% |
| COC(=O)NCCCn1ccnc1-c1ccccc1 | -6.73% |
| CCOCC(=O)NCCCn1ccnc1-c1ccccc1 | -7.22% |
| O=C(NCc1nc2ccccc2[nH]1)c1cc2n(n1)CCCO2 | -1.37% |
| CCOC(=O)Cc1csc(NC(=O)c2cc3n(n2)CCCO3)n1 | -2.3% |
| O=C(NCc1nc2ccccc2[nH]1)c1cnn2c1OCCC2 | -1.96% |
| Cc1ccccc1C(=O)N1CC2(COC(C)(C)OC2)C1 | 9.04% |
| CC1(C)OCC2(CO1)CN(C(=O)c1ccccc1Cl)C2 | -1.63% |
| CC1(C)OCC2(CO1)CN(S(=O)(=O)c1ccc(Cl)s1)C2 | -1.76% |
| CC(=O)N(C)CC(=O)Nc1cnc(-n2ccnc2C)nc1 | 27.9% |
| COCC(=O)Nc1cnc(N2CCCC2)nc1 | -0.927% |
| COCC(=O)Nc1cnc(N2CCOCC2)nc1 | -3.21% |
| O=C(Nc1cnc(N2CCOCC2)nc1)c1ccc(C(F)(F)F)cc1 | 6.8% |
| O=C(CCCc1ccccc1)Nc1cnc(N2CCOCC2)nc1 | 2.35% |
| O=C(COc1ccc(Cl)cc1)Nc1cnc(N2CCOCC2)nc1 | 1.79% |
| CCOc1ccc(NC(=O)Nc2cnc(N3CCOCC3)nc2)cc1 | 3.88% |
| CN(C)c1ncc(NS(=O)(=O)c2ccc(OC(F)(F)F)cc2)cn1 | 3.34% |
| CN1CCC2(Cc3ccccc3NC2=O)C1 (stereo not drawn) | -3.49% |
| CC(C)C(=O)N1CCCC12CCN(C(=O)c1ccno1)C2 (stereo not drawn) | -1.72% |

| Compound | cytotoxicity at 70.5 h |
| --- | --- |
| O=C(C[C@H]1[C@H]2CN(C(=O)CO)C[C@@H]12)Nc1cccnc1 | 0.591% |
| CN(C)C(=O)c1nc2c(n1C)CCN(Cc1ccccc1)C2 | 0.767% |
| CC(C)N1CCc2onc(Cn3cccn3)c2C1 | -5.3% |
| CCOC[C@@H]1CC[C@H]2[C@H](CCN2S(=O)(=O)Cc2ccccc2)O1 | 10.7% |
| COC[C@@H]1CC[C@H]2[C@H](CCN2S(=O)(=O)Cc2ccccc2)O1 | -1.62% |
| CCOC[C@H]1CC[C@H]2[C@H](CCN2S(=O)(=O)Cc2ccccc2)O1 | -1.8% |
| CCN(CC)[C@H]1COC[C@@H]2CN(Cc3cnn(C)c3)C[C@@H]21 | -3.13% |
| CCS(=O)(=O)NCC1OCCc2cn(CC3CCOCC3)nc21 (stereo not drawn) | 11.8% |
| Cc1cnc(N2CCC3(CC2)CC(NC(=O)C(C)C)CO3)nc1 (stereo not drawn) | 11.3% |
| CS(=O)(=O)NCC1OCCc2cn(CC3CC3)nc21 (stereo not drawn) | 13% |
| CN(C)S(=O)(=O)NCC1OCCc2cn(CC3CCOCC3)nc21 (stereo not drawn) | 13.8% |
| CN(C)S(=O)(=O)N1CC[C@]2(C[C@@H](OCC3CC3)CO2)C1 | 0.733% |
| CN(C)Cc1cc(=O)n2c(n1)CN(CC1CC1)CCC2 | -6.12% |
| CCn1cc2c(n1)C(COC)CN(Cc1ccoc1)C2 (stereo not drawn) | -15.1% |
| CCS(=O)(=O)N1CCOC2(COCCN(c3nccs3)C2)C1 (stereo not drawn) | -8.91% |
| Fc1cccc(N2CCOC3(CCCN(c4cnccn4)C3)C2)c1 (stereo not drawn) | -7.3% |
| CCS(=O)(=O)N1Cc2ccnn2CC(c2nc(C)no2)C1 (stereo not drawn) | -9.51% |
| O=S(=O)(C1CC1)N1CC[C@]2(C[C@@H](OCC3CCOCC3)CO2)C1 | -9.4% |
| CN1C[C@@H]2COC[C@]2(C(=O)NCc2cccs2)C1 | 13.4% |
| Cc1ccsc1C(=O)N1CCCn2nnc(Cn3cccn3)c2C1 | 9.85% |
| O=C(c1ccno1)N1CCC2(CC1)C(=O)Nc1ccccc12 | -6.37% |
| c1cncc(COCC2CN(Cc3ccsc3)Cc3ccnn3C2)c1 (stereo not drawn) | -4.42% |
| CCc1nn(-c2cc(Oc3cc(C)ccc3C)ncn2)c(N)c1C#N | -1.76% |

| Compound | cytotoxicity at 70.5 h |
| --- | --- |
| O=C(Cn1nc(Br)nc1Br)N1CCCCC1 | -3.74% |
| CCCc1ccc(N2CCN(Cc3nc4ccccc4n3C)CC2)cc1 | 19.9% |
| Cc1cnc(N2C(=O)CSC2c2ccc(F)cc2)s1 (stereo not drawn) | -5.25% |
| Cc1cnc(N2C(=O)CSC2c2ccc(N(C)C)cc2)s1 (stereo not drawn) | -8.63% |
| COc1cc2ncn(CC(=O)NCCCN(C)C)c(=O)c2cc1OC | -6.49% |
| CC(=O)c1cn(CCC(=O)N[C@H](C(=O)O)C(C)C)c2ccccc12 | -4% |
| COc1cccc(-c2nc(C)c(C(=O)N[C@@H](C)C(=O)O)s2)c1 | 4.53% |
| COc1cc2nc(C)n(CC(=O)NCCCN(C)C)c(=O)c2cc1OC | 6.18% |
| O=C(NCCN1CCNCC1)c1c(O)c2ccccc2[nH]c1=O | 36.3% |
| CC(C)Cc1nc(OCC(=O)O)c(C#N)c2c1CCC2 | 3.53% |
| CC(C)Cc1nc(OCC(N)=O)c(C#N)c2c1CCC2 | 14.5% |
| CN(C)CCNC(=O)CNC(=O)N1CCc2c([nH]c3ccc(Cl)cc23)C1 | 45.2% |
| CSCC[C@H](NC(=O)Cn1ccc2c(Cl)cccc21)C(=O)O | -11.9% |
| COc1cc(COCC2CCN(Cc3ccccn3)CC2)cc(OC)c1 | -8.26% |
| CCS(=O)(=O)N1CCCC2(COCCN(c3cnccn3)C2)C1 (stereo not drawn) | -2.48% |
| O=C(c1ccc[nH]1)N1CCC2(CCCN2Cc2cccnc2)CC1 | 0.719% |
| CN(C)C(=O)CN1CCCC2(CCN(c3ccc(C#N)cn3)C2)C1 (stereo not drawn) | 8.76% |
| CNC(=O)[C@@H]1CC[C@@H]2[C@@H](CCN2Cc2ccccc2F)O1 | -4.13% |
| CC(C)NC(=O)[C@@H]1CC[C@@H]2[C@@H](CCN2Cc2cn(C)c3ccccc23)O1 | -2.33% |
| CN1CCc2onc(Cn3cccc3)c2C1 | -0.902% |
| CC(C)N1CCc2onc(Cn3cccc3)c2C1 | -2.22% |
| c1cnc(N2CCO[C@H]3CN(Cc4cc[nH]n4)C[C@H]32)cn1 | -7.22% |
| CC(C)NC(=O)C1CCC2(CCN(Cc3cnn(C)c3)CC2)C1 (stereo not drawn) | -8.81% |

| Compound | cytotoxicity at 70.5 h |
| --- | --- |
| c1cnc(N2CCO[C@H]3CN(Cc4c[nH]cn4)C[C@H]32)cn1 | -5.79% |
| CCS(=O)(=O)N1CCC2(CC1)COC(COc1cccnc1)C2 (stereo not drawn) | -10.2% |
| CC(C)NC(=O)C1CCC2(CCN(Cc3cnn(C)c3)CC2)CO1 (stereo not drawn) | -17% |
| CN(C)S(=O)(=O)N1CC[C@H]2OCC[C@@]2(COc2cccnc2)C1 | -12.5% |
| Cc1ncsc1CN1C[C@H](OCC(C)C)[C@H]2OCCC[C@H]21 | -0.162% |
| c1csc(CN2CCC3(CCCN(c4nncs4)C3)C2)n1 (stereo not drawn) | -1.22% |
| CN1CCOCC12CCN(c1nncs1)CC2 | -2.11% |
| Cc1ccoc1C(=O)N1C[C@@H](N2CCN(C)CC2)[C@H]2OCCC[C@H]21 | -4.64% |
| CN1CCN([C@@H]2CN(C(=O)Cc3ccsc3)[C@@H]3CCCO[C@H]23)CC1 | -4.38% |
| Fc1cnc(N2CC[C@@H]3OC(COCc4cccnc4)CC[C@@H]32)nc1 (stereo partly drawn) | -4.57% |
| CN(C)Cc1n[nH]c2c1CCN(Cc1cccs1)C2 | -4.47% |
| Cc1ccc(CN2CCc3c(CN(C)C)n[nH]c3C2)s1 | -0.649% |
| COc1ccc(CN2CCOC3(CCCN(c4cnccn4)C3)C2)cc1 (stereo not drawn) | -4.22% |
| Cn1cc(C[C@H]2[C@H](N3CCOCC3)CCN2C2CCOCC2)cn1 | -13.7% |
| CNC(=O)c1cc2c(nc1NCC(C)C)CCN(CCOC)CC2 | 4.78% |
| CNC(=O)c1cc2c(nc1NCC(C)C)CCN(C)CC2 | 0.255% |
| CNC(=O)c1cc2c(nc1NCC(C)C)CCN(CC1CC1)CC2 | -9.46% |
| CN(C)[C@@H]1CN(Cc2cnn(C)c2)[C@@H]2COC[C@H]12 | 7.8% |
| CN(C)CCNC(=O)[C@H]1C[C@H]2CN(c3ncccn3)C[C@H]2N1C | -2.47% |
| CN1CCN([C@@H]2CCN(C3CCOCC3)[C@H]2Cc2cnn(C)c2)CC1 | -6.56% |
| CN(CCO)CC1COCCN1C(=O)C1(c2cccs2)CCCC1 (stereo not drawn) | -1% |
